Experimental data: ChEMBL document CHEMBL4265930, “Dual potent ALK and ROS1 inhibitors combating drug-resistant mutants: Synthesis and biological evaluation of aminopyridine-containing diarylaminopyrimidine derivatives” (Eur J Med Chem, 2018)
pIC50: −log10 of the molar value. Active and inactive are the calls of the source. No cut-off for these calls is given here.

Experiments:
HCC78 = experiment: Antiproliferative activity against human HCC78 cells harboring SLC34A2-ROS1 after 72 hrs by MTT assay; type: functional, cell-based; conditions: HCC78, 72 h
NCI-H2228 = experiment: cells; conditions: Homo sapiens, NCI-H2228, 72 h
Description: Antiproliferative activity against human NCI-H2228 cells harboring EML4-ALK after 72 hrs by MTT assay

KARPAS-299 [1] = experiment: cells; conditions: Homo sapiens, KARPAS-299, 72 h
Description: Antiproliferative activity against human KARPAS299 cells harboring NPM-ALK after 72 hrs by MTT assay

BaF3 = experiment: cells; conditions: Mus musculus, BaF3, 72 h
A549 = experiment: cells; conditions: Homo sapiens, A549, 72 h
Description: Antiproliferative activity against human A549 cells after 72 hrs by MTT assay

[2] = target: ALK tyrosine kinase receptor (Homo sapiens, UniProt Q9UM73, L1196M)
Description: Inhibition of human N-terminal GST-tagged ALK L1196M mutant cytoplasmic domain (1058 to 1620 residues) expressed in baculovirus expression system after 1 hr by mobility shift assay

[3] = target: T1, ALK tyrosine kinase receptor (Homo sapiens, UniProt Q9UM73)
Target sequence in this assay (Q9UM73 whole entry): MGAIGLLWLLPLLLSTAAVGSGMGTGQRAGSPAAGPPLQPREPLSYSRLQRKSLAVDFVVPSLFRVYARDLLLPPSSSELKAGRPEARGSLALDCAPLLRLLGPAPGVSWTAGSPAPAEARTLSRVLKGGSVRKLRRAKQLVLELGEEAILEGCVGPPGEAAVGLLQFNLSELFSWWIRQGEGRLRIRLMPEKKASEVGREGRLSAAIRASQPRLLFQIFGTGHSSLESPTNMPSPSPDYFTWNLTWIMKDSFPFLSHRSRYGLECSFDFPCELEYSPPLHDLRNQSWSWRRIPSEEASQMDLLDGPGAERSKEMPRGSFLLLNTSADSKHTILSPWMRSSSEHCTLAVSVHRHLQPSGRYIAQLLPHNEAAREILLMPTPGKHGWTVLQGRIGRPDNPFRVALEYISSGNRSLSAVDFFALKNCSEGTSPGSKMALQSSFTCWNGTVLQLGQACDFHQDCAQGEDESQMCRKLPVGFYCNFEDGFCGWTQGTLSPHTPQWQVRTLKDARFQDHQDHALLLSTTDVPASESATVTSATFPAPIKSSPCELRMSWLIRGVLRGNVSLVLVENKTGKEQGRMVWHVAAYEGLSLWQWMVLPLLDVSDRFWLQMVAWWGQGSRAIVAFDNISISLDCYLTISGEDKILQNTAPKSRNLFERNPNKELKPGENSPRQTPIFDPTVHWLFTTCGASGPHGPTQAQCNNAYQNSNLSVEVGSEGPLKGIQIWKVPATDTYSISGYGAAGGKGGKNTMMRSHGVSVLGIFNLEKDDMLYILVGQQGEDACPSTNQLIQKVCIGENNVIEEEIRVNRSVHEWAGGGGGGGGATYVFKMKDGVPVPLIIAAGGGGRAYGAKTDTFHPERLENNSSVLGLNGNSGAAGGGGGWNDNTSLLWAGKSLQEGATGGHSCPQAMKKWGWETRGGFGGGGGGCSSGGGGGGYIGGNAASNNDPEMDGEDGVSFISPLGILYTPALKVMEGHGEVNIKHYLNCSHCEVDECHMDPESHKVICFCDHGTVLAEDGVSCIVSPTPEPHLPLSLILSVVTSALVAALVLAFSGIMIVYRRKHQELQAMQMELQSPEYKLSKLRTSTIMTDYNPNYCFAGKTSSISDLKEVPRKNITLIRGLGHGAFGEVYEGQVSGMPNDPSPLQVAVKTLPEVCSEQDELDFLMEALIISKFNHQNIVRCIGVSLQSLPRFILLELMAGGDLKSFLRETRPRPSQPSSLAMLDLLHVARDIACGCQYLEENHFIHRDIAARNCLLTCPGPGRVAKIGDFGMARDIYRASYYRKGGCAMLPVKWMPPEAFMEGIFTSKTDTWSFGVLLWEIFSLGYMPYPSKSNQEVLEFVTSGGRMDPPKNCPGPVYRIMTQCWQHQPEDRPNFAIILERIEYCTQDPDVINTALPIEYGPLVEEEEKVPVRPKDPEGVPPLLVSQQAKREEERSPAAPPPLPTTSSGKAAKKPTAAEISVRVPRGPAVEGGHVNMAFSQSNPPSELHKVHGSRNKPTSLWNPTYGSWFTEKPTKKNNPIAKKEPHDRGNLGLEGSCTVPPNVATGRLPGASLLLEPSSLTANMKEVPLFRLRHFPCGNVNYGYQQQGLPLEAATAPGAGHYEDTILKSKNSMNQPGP
Description: Inhibition of human N-terminal GST-tagged ALK cytoplasmic domain (1058 to 1620 residues) expressed in baculovirus expression system after 1 hr by mobility shift assay

[4] = target: ALK tyrosine kinase receptor (Homo sapiens, UniProt Q9UM73, G1202R)
[5] = target: Proto-oncogene tyrosine-protein kinase ROS (Homo sapiens, UniProt P08922); experiment: Inhibition of human N-terminal GST-tagged ROS cytoplasmic domain (1883 to 2347 residues) expressed in baculovirus expression system after 1 hr by mobility shift assay
[6] = target: Epidermal growth factor receptor (Homo sapiens, UniProt P00533)
Description: Inhibition of human N-terminal GST-tagged EGFR cytoplasmic domain (669 to 1210 residues) expressed in baculovirus expression system after 1 hr by mobility shift assay

[7] = tested on: ALK tyrosine kinase receptor (Homo sapiens), Q9UM73 [L1196M]; experiment: Potency index, ratio of ceritinib IC50 to compound IC50 for human N-terminal GST-tagged ALK L1196M mutant cytoplasmic domain (1058 to 1620 residues) expressed in baculovirus expression system
[8] = tested on: ALK tyrosine kinase receptor (Homo sapiens), Q9UM73 [G1202R]; experiment: Potency index, ratio of ceritinib IC50 to compound IC50 for human N-terminal GST-tagged ALK G1202R mutant cytoplasmic domain (1058 to 1620 residues) expressed in baculovirus expression system
[9] = target: T1, ALK tyrosine kinase receptor; experiment: Inhibition of ALK phosphorylation in human KARPAS299 cells after 24 hrs by Western blot analysis; type: cell-based
Target sequence in this assay (Q9UM73 19-1620 limits assumed): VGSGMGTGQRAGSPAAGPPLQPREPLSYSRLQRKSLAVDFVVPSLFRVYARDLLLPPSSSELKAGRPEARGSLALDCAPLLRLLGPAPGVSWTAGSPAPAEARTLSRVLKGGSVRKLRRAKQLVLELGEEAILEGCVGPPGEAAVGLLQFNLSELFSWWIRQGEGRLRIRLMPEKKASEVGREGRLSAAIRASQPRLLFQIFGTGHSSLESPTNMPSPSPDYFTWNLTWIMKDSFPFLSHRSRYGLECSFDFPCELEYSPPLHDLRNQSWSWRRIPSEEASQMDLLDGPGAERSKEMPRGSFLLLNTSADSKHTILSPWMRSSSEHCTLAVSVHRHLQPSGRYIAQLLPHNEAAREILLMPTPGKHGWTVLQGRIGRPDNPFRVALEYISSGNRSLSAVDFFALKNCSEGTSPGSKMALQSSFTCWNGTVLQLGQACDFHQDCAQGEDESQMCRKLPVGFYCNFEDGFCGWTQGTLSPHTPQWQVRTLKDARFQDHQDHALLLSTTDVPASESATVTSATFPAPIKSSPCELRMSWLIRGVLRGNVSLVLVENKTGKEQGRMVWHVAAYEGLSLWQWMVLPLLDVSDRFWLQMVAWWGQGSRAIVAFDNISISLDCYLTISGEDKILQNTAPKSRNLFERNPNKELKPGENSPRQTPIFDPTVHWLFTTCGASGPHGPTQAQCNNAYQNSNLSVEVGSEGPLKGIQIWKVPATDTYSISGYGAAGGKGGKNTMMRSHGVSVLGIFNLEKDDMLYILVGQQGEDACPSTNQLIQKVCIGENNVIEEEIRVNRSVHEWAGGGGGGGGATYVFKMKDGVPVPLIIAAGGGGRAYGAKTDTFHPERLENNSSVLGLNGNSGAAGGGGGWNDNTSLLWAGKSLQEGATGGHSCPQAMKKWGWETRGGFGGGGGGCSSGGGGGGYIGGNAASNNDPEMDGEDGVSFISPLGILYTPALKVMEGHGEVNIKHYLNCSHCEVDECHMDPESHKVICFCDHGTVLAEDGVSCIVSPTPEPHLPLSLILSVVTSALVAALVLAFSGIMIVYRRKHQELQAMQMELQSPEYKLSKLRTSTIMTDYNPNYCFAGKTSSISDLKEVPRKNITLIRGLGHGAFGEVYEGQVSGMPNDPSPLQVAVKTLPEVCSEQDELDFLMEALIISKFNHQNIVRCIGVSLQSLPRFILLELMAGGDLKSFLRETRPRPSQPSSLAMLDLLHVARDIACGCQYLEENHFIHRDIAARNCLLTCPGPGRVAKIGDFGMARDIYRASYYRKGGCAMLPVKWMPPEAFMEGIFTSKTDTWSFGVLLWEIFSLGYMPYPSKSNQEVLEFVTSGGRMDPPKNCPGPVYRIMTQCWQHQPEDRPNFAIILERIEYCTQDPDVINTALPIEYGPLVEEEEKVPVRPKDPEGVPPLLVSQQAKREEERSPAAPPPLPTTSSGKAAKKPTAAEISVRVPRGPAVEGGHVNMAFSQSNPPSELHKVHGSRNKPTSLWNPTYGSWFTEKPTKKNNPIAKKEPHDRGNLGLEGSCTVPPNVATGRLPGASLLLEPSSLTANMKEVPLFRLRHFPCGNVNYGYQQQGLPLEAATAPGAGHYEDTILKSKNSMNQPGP

[10] = target: T1, ALK tyrosine kinase receptor; experiment: Inhibition of ALK in human KARPAS299 cells assessed as decrease in Akt phosphorylation after 24 hrs by Western blot analysis; type: cell-based
Target sequence in this assay (Q9UM73 19-1620 limits assumed): as above

[11] = target: T1, ALK tyrosine kinase receptor; experiment: Inhibition of ALK in human KARPAS299 cells assessed as decrease in STAT3 phosphorylation after 24 hrs by Western blot analysis; type: cell-based
Target sequence in this assay (Q9UM73 19-1620 limits assumed): as above

KARPAS-299 [12] = experiment: Induction of apoptosis in human KARPAS299 cells assessed as late apoptotic cells at 25 to 50 nM after 24 hrs by AO/EB double staining based inverted fluorescence microscopy; type: functional, cell-based
KARPAS-299 [13] = experiment: Induction of apoptosis in human KARPAS299 cells assessed as early apoptotic cells at 25 to 50 nM after 24 hrs by Hoechst 33258 staining based inverted fluorescence microscopy; type: functional, cell-based

Epidermal growth factor receptor, sequence (P00533 whole entry, the tested form may be a part): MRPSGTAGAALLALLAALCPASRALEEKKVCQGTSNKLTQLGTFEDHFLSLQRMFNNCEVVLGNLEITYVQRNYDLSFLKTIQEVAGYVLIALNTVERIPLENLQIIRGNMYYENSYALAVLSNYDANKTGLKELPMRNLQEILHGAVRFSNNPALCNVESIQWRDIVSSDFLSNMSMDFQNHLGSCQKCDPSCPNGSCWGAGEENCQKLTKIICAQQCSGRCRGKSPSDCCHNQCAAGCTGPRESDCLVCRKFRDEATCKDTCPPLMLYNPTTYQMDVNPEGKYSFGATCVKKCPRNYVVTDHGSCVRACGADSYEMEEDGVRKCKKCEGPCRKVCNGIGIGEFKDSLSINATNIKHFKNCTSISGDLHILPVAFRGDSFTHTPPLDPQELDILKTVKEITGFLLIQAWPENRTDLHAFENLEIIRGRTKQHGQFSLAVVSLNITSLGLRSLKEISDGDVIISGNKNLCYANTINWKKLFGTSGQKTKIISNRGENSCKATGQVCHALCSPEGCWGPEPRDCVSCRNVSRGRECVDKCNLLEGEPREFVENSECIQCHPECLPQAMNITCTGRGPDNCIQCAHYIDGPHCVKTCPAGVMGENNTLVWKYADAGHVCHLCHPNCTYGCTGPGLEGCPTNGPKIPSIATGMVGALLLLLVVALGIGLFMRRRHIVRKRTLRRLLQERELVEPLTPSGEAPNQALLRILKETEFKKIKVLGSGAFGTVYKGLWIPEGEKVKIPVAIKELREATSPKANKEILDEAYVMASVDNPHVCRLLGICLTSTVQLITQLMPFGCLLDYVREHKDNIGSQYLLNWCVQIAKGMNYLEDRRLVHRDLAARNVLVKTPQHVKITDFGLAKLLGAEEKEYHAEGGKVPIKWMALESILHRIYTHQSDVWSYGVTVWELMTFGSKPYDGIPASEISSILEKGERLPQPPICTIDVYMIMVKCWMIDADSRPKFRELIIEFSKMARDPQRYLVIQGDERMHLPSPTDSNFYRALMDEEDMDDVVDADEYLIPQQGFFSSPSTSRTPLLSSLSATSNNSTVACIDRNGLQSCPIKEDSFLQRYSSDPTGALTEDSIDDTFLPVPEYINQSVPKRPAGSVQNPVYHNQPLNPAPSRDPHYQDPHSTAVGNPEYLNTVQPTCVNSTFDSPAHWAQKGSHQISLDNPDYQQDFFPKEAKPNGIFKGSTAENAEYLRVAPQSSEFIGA
ALK tyrosine kinase receptor (Homo sapiens, UniProt Q9UM73, G1202R), sequence (Q9UM73 19-1620 G1202R limits assumed): as the sequence (Q9UM73 19-1620 limits assumed) above, with G1184R counted along it
ALK tyrosine kinase receptor (Homo sapiens, UniProt Q9UM73, L1196M), sequence (Q9UM73 19-1620 L1196M limits assumed): as the sequence (Q9UM73 19-1620 limits assumed) above, with L1178M counted along it
ALK tyrosine kinase receptor (Homo sapiens), Q9UM73 [L1196M], sequence (Q9UM73 whole entry L1196M, looked up, the tested form may be a part): as the sequence (Q9UM73 whole entry) above, with L1196M counted along it
ALK tyrosine kinase receptor (Homo sapiens), Q9UM73 [G1202R], sequence (Q9UM73 whole entry G1202R, the tested form may be a part): as the sequence (Q9UM73 whole entry) above, with G1202R counted along it

| pIC50 (HCC78) | pIC50 (NCI-H2228) | pIC50 (KARPAS-299 [1]) | pIC50 (BaF3) | pIC50 (A549) | Structure (SMILES) | pIC50 [2] | pIC50 [3] | pIC50 [4] | pIC50 [5] | pIC50 [6] | Ratio IC50 [7] | Ratio IC50 [8] | inhibition [9] | inhibition [10] | inhibition [11] | Activity (KARPAS-299 [12]) | Activity (KARPAS-299 [13]) |
| --- | --- | --- | --- | --- | --- | --- | --- | --- | --- | --- | --- | --- | --- | --- | --- | --- | --- |
| 6.32 | 7.05 | 7.26 | 6.77 | < 6.00 | COc1nc(N2CCOCC2)ccc1Nc1ncc(Cl)c(Nc2ccccc2NS(=O)(=O)C2CC2)n1 |  |  |  |  |  |  |  |  |  |  |  |  |
|  | 7.59 | 7.39 | < 6.00 | < 6.00 | Cc1cc(Nc2ncc(Cl)c(Nc3ccccc3S(=O)(=O)C(C)C)n2)c(OC(C)C)cc1C1CCNCC1 [CERITINIB] |  |  |  |  |  |  |  |  |  |  |  |  |
| 6.59 | 6.19 | 6.34 | 6.92 | < 6.00 | CCN(CC)c1ccc(Nc2ncc(Cl)c(Nc3ccccc3NS(=O)(=O)C3CC3)n2)c(OC)n1 |  |  |  |  |  |  |  |  |  |  |  |  |
| 7.05 | 7.30 | 6.96 | 7.15 | < 6.00 | COc1nc(N2CC(O)C2)ccc1Nc1ncc(Cl)c(Nc2ccccc2NS(=O)(=O)C2CC2)n1 |  |  |  |  |  |  |  |  |  |  |  |  |
| 6.72 | 6.89 | 7.40 | 6.48 | < 6.00 | COc1nc(N2CCCCC2)ccc1Nc1ncc(Cl)c(Nc2ccccc2NS(C)(=O)=O)n1 |  |  |  |  |  |  |  |  |  |  |  |  |
| 7.05 | 6.85 | 7.22 | 6.36 | < 6.00 | CN1CCN(c2ccc(Nc3ncc(Cl)c(Nc4ccccc4NS(=O)(=O)C4CC4)n3)cn2)CC1 |  |  |  |  |  |  |  |  |  |  |  |  |
| 6.13 | 6.02 | 6.06 | < 6.00 | < 6.00 | CCN1CCN(c2ccc(Nc3ncc(Cl)c(Nc4ccccc4NS(C)(=O)=O)n3)c(OC)n2)CC1 |  |  |  |  |  |  |  |  |  |  |  |  |
| 7.05 | 6.39 | 6.51 | 6.07 | 6.09 | CC(C)Oc1nc(N2CCCC2)ccc1Nc1ncc(Cl)c(Nc2ccccc2NS(C)(=O)=O)n1 |  |  |  |  |  |  |  |  |  |  |  |  |
| 6.41 | 6.57 | 6.32 | 6.20 | < 6.00 | COc1nc(N2CCCCC2)ccc1Nc1ncc(Cl)c(Nc2ccccc2NS(=O)(=O)C2CC2)n1 |  |  |  |  |  |  |  |  |  |  |  |  |
| 6.49 | 6.01 | 6.12 | < 6.00 | < 6.00 | CC(C)Sc1nc(N2CCCC2)ccc1Nc1ncc(Cl)c(Nc2ccccc2NS(C)(=O)=O)n1 |  |  |  |  |  |  |  |  |  |  |  |  |
| 6.68 | 6.44 | 7.10 | 6.64 | < 6.00 | C/C=C/C(=O)Nc1ccccc1Nc1nc(Nc2ccc(N3CCCCC3)nc2OC)ncc1Cl |  |  |  |  |  |  |  |  |  |  |  |  |
| 7.10 | 6.32 | 7.10 | 6.13 | < 6.00 | CS(=O)(=O)Nc1ccccc1Nc1nc(Nc2ccc(N3CCCC3)nc2)ncc1Cl |  |  |  |  |  |  |  |  |  |  |  |  |
| 6.89 | 7.74 | 7.46 | 7.40 | < 6.00 | COc1nc(N2CCN(CCO)CC2)ccc1Nc1ncc(Cl)c(Nc2ccccc2NS(=O)(=O)C2CC2)n1 |  |  |  |  |  |  |  |  |  |  |  |  |
| 6.36 | 6.31 | 6.41 | < 6.00 | < 6.00 | COc1nc(N2CCNC(C)C2)ccc1Nc1ncc(Cl)c(Nc2ccccc2NS(C)(=O)=O)n1 (stereo unspecified) |  |  |  |  |  |  |  |  |  |  |  |  |
| 6.89 | 6.38 | 6.47 | < 6.00 | < 6.00 | CC(C)Sc1nc(N2CCN(C)CC2)ccc1Nc1ncc(Cl)c(Nc2ccccc2NS(C)(=O)=O)n1 |  |  |  |  |  |  |  |  |  |  |  |  |

Further lines, the compound ahead of its results:

| Structure (SMILES) | pIC50 (HCC78) | pIC50 (NCI-H2228) | pIC50 (KARPAS-299 [1]) | pIC50 (BaF3) | pIC50 (A549) | pIC50 [2] | pIC50 [3] | pIC50 [4] | pIC50 [5] | pIC50 [6] | Ratio IC50 [7] | Ratio IC50 [8] | inhibition [9] | inhibition [10] | inhibition [11] | Activity (KARPAS-299 [12]) | Activity (KARPAS-299 [13]) |
| --- | --- | --- | --- | --- | --- | --- | --- | --- | --- | --- | --- | --- | --- | --- | --- | --- | --- |
| COc1nc(N2CCN(CCO)CC2)ccc1Nc1ncc(Cl)c(Nc2ccccc2NS(C)(=O)=O)n1 | 6.96 | 7.15 | 7.42 | 7.05 | < 6.00 | 5.66 | 5.49 | 5.11 | 5.47 | < 3.00 |  |  |  |  |  |  |  |
| COc1nc(N2CCN(C)CC2)ccc1Nc1ncc(Cl)c(Nc2ccccc2NS(C)(=O)=O)n1 | 7.37 | 7.92 | 8.00 | 7.52 | < 6.00 | 5.89 | 5.68 | 5.41 | 5.64 | < 3.00 | 11 to 23 | 11 to 23 | Dose-dependent effect | Dose-dependent effect | Dose-dependent effect | Active | Active |
| C/C=C/C(=O)Nc1ccccc1Nc1nc(Nc2ccc(N3CCN(C)CC3)nc2OC)ncc1Cl | 6.39 | 6.57 | 7.14 | 6.96 | < 6.00 |  |  |  |  |  |  |  |  |  |  |  |  |
| CN1CCN(c2ccc(Nc3ncc(Cl)c(Nc4ccccc4NS(C)(=O)=O)n3)cn2)CC1 | 7.15 | 7.10 | 7.40 | 6.11 | 6.07 |  |  |  |  |  |  |  |  |  |  |  |  |
| COc1nc(N2CCSCC2)ccc1Nc1ncc(Cl)c(Nc2ccccc2NS(C)(=O)=O)n1 | 7.10 | 7.62 | 7.57 | 7.30 | 6.07 | 5.80 | 5.55 | 5.10 | 5.21 | < 3.00 |  |  |  |  |  |  |  |
| COc1nc(N2CCN(C)CC2)ccc1Nc1ncc(Cl)c(Nc2ccccc2NC(C)=O)n1 | 6.85 | 6.80 | 7.57 | 7.05 | 6.15 |  |  |  |  |  |  |  |  |  |  |  |  |
| CCN(CC)c1ccc(Nc2ncc(Cl)c(Nc3ccccc3NS(C)(=O)=O)n2)c(OC)n1 | 6.51 | 6.44 | 7.22 | 6.74 | < 6.00 |  |  |  |  |  |  |  |  |  |  |  |  |
| COc1nc(N2CCCC2)ccc1Nc1ncc(Cl)c(Nc2ccccc2NS(C)(=O)=O)n1 | 6.62 | 6.77 | 7.10 | 6.89 | 6.15 |  |  |  |  |  |  |  |  |  |  |  |  |
| C/C=C/C(=O)Nc1ccccc1Nc1nc(Nc2ccc(N3CCNC(C)C3)nc2OC)ncc1Cl (stereo unspecified) | 6.04 | < 6.00 | 6.24 | < 6.00 | < 6.00 |  |  |  |  |  |  |  |  |  |  |  |  |
| C/C=C/C(=O)Nc1ccccc1Nc1nc(Nc2ccc(N3CCCC3)nc2OC)ncc1Cl | 6.80 | 6.42 | 6.66 | 6.52 | < 6.00 |  |  |  |  |  |  |  |  |  |  |  |  |
| COc1nc(N2CCCC2)ccc1Nc1ncc(Cl)c(Nc2ccccc2NS(=O)(=O)C2CC2)n1 | 6.62 | 6.39 | 6.92 | < 6.00 | < 6.00 |  |  |  |  |  |  |  |  |  |  |  |  |
| CC(C)Oc1nc(N2CCN(C)CC2)ccc1Nc1ncc(Cl)c(Nc2ccccc2NS(C)(=O)=O)n1 | 6.59 | 7.34 | 7.74 | 6.06 | 6.06 | 5.32 | 5.38 | 5.03 | 5.70 | < 3.00 |  |  |  |  |  |  |  |
| COc1nc(N2CCN(C)CC2)ccc1Nc1ncc(Cl)c(Nc2ccccc2NS(=O)(=O)C2CC2)n1 | 6.57 | 7.22 | 7.55 | 7.05 | < 6.00 | 5.41 | 5.41 | 5.22 | 5.34 | < 3.00 |  |  |  |  |  |  |  |
| COc1nc(N2CC(O)C2)ccc1Nc1ncc(Cl)c(Nc2ccccc2NS(C)(=O)=O)n1 | 7.46 | 7.38 | 7.22 | 7.49 | < 6.00 | 5.70 | 5.85 | 5.28 | 5.80 | < 3.00 |  |  |  |  |  |  |  |
